Measurements: article PMC10202811 (Nature Medicine, 2023)
Where “and” joins values, the source holds several entries; their conditions need not be identical. Equal entries are not always repeated. Entries after “also recorded” stand apart in the source; their conditions may differ.

How the values were obtained:
[1] = system: ALK-driven refractory or relapsed neuroblastoma; test: Anti-tumor response: best overall response by NANT response criteria version 2.0; type: in vivo, human
Text: Patients underwent disease staging at baseline, after courses 2 and 4 and then every four courses thereafter. The primary endpoint for response analysis is the BOR, defined as the best response observed before progression or start of another therapy. […] Response was graded according to the NANT response criteria version 2.0 (ref. [26]), modified from the International Neuroblastoma Response Criteria (INRC)[48]. NANT response criteria use three components for assessment of overall response: soft tissue response assessed by anatomical imaging and avidity on MIBG or FDG-PET; bone response assessed by uptake in bone by MIBG or bone involvement on FDG-PET; and bone marrow response assessed by morphology on bilateral aspirates and biopsies. Each response component (soft tissue, bone and bone marrow) are graded as CR, PR, SD and PD. Overall response grading is defined as: CR, if a response of CR in all components that are involved at baseline; PR, if a response of PR or better in all involved components; MR, if a response of PR or better but with at least one involved component as SD and no PD in all involved components; SD, if a response of SD in all involved components; and PD, if a response of PD in at least one involved component. The overall response definitions are identical to overall responses (CR, PR, SD and PD) as defined by the INRC. Response assessment is initially performed by sites and reviewed against source documents by NANT operations. Additional blinded central review of all radiological or pathological data was conducted for patients with overall PR or better and, in addition, radiologic pathological data of all involved sites for patients with MR to assign the final BOR on this study. Response by MIBG was determined using the Curie criteria. RR was determined as the proportion of patients with BOR of CR and PR in each cohort. Based on an international consensus by the National Cancer Institute Clinical Trials Planning Committee to refine tumor site eligibility criteria and evaluation of disease response for early-phase clinical trials in children with high-risk recurrent, refractory and progressive neuroblastoma, we also performed an ad hoc analysis to determine a modified RR that includes the proportion of patients with BOR of CR, PR and MR.

[2] = system: ALK-driven refractory or relapsed neuroblastoma; test: Progression-free survival and overall survival (Kaplan-Meier) by cohort; type: in vivo, human; details: individual patients (PID); for PFS status: source data of Figure 3; for PFS time, years since on study: time is censored where PFS status is No event; for OS time, years since on study: time is censored where vital status is Alive
Text: Supplement 41591_2023_2297_MOESM8_ESM.xlsx, sheet "Figure 3" | column: PFS status; PFS time, years since on study; Vital status; OS time, years since on study

[3] = Cohort A1, Dose Level 1, individual patient
[4] = Cohort A1, Dose Level 3, individual patient
[5] = Cohort A1, Dose Level 4, individual patient
[6] = Cohort A2, Dose Level 3A, individual patient
[7] = Cohort A2, Dose Level 4A, individual patient
[8] = Cohort B2 (with topotecan/cyclophosphamide), DL4
[9] = Cohort B2 (with topotecan/cyclophosphamide), DL5
[10] = Cohort B2, Dose Level 4B, individual patient
[11] = Cohort B2, Dose Level 5B, individual patient

## C[C@H]1Oc2cc(cnc2N)-c2c(nn(C)c2C#N)CN(C)C(=O)c2ccc(F)cc21 [Lorlatinib, (10R)-7-amino-12-fluoro-2,10,16-trimethyl-15-oxo-10,15,16,17-tetrahydro-2H-8,4-(metheno)pyrazolo[4,3-h][2,5,11]-benzoxadiazacyclotetradecine-3-carbonitrile]
[1]; <18 years, MYCN-amplified/ALK-mutated neuroblastoma (6/7), cohort A1
  patients with PD before or by the end of course 2: 86%
[1]; Cohort A1 (N= 23), Total
  CR, patients: 1
  MR, patients: 4
  PD, patients: 12
  PR, patients: 2
[1]; Cohort A1, DL1
  CR+PR Rate: 1/3
  CR+PR+MR Rate: 2/3
  CR, patients: 0
  MR, patients: 1
  PD, patients: 1
  PR, patients: 1
[1]; Cohort A1, DL2
  CR+PR Rate: 0/2
  CR+PR+MR Rate: 0/2
  CR, patients: 0
  MR, patients: 0
  PD, patients: 2
  PR, patients: 0
[1]; Cohort A1, DL3
  CR+PR Rate: 0/3
  CR+PR+MR Rate: 0/3
  CR, patients: 0
  MR, patients: 0
  PD, patients: 2
  PR, patients: 0
[1]; Cohort A1, DL4
  CR+PR Rate: 0/9
  CR+PR+MR Rate: 2/9
  CR, patients: 0
  MR, patients: 2
  PD, patients: 5
  PR, patients: 0
[1]; Cohort A1, DL5
  CR+PR Rate: 2/6
  CR+PR+MR Rate: 3/6
  CR, patients: 1
  MR, patients: 1
  PD, patients: 2
  PR, patients: 1
[1]; [3]
  Course Best overall response is achieved: 14 and 2
  Patient status at end of course: Off therapy
[1]; Cohort A1, Dose Level 2, individual patient
  Course Best overall response is achieved: 2
[1]; [4]
  Course Best overall response is achieved: 2
  Patient status at end of course: Off therapy
[1]; [5]
  Course Best overall response is achieved: 2
  Patient status at end of course: Off therapy
[1]; Cohort A1, Dose Level 5, individual patient
  Course Best overall response is achieved: 4 and 6 and 2
[1]; Cohort A2 (N=15), Total
  CR, patients: 4
  MR, patients: 3
  PD, patients: 1
  PR, patients: 3
[1]; Cohort A2, 100 mg
  CR+PR Rate: 2/5
  CR+PR+MR Rate: 3/5
  CR, patients: 0
  MR, patients: 1
  PD, patients: 1
  PR, patients: 2
[1]; Cohort A2, 150 mg
  CR+PR Rate: 5/10
  CR+PR+MR Rate: 7/10
  CR, patients: 4
  MR, patients: 2
  PD, patients: 0
  PR, patients: 1
[1]; [6]
  Course Best overall response is achieved: 6 and 2
  Patient status at end of course: Off therapy
[1]; [7]
  Course Best overall response is achieved: 4 and 10 and 6 and 2 and 1
  Patient status at end of course: Ongoing therapy; also recorded: Off therapy
[1]; Cohort B2 (N=8), Total
  CR, patients: 1
  MR, patients: 3
  PD, patients: 3
  PR, patients: 1
[1]; [8]
  CR+PR Rate: 1/2
  CR+PR+MR Rate: 1/2
  CR, patients: 1
  MR, patients: 0
  PD, patients: 1
  PR, patients: 0
[1]; [9]
  CR+PR Rate: 1/6
  CR+PR+MR Rate: 4/6
  CR, patients: 0
  MR, patients: 3
  PD, patients: 2
  PR, patients: 1
[1]; [10]
  Course Best overall response is achieved: 2
  Patient status at end of course: Off therapy
[1]; [11]
  Course Best overall response is achieved: 2
  Patient status at end of course: Ongoing therapy; also recorded: Off therapy
[1]; cohort A1 (3/23)
  RR (BOR of CR or PR): 13%
[1]; cohort A1, 11 of 23 patients with SD or better
  median time to BOR: two
[1]; cohort A1, four of nine
  patients pre-treated with ALK TKI achieving MR or SD: 44%
[1]; cohort A1, single agent, <18 years
  modified RR (BOR of CR/PR/MR): 30%
[1]; cohort A2 (7/15)
  RR (BOR of CR/PR): 47%
[1]; cohort A2, 14 of 15 patients with SD or better
  median time to BOR: four
[1]; cohort A2, single agent, ≥18 years
  modified RR (BOR of CR/PR/MR): 67%
[1]; cohort A2, three of five
  responses in patients with prior ALK TKI: 60%
[1]; cohort B2
  median time to BOR of SD or better: two
[1]; cohort B2 (2/8), with topotecan/cyclophosphamide
  RR (BOR of CR/PR): 25%
[1]; cohort B2, lorlatinib plus topotecan/cyclophosphamide
  patients with MYCN amplification achieving a PR: two of three
[1]; cohort B2, with topotecan/cyclophosphamide, <18 years
  modified RR (BOR of CR/PR/MR): 63% and 62%
[1]; individual patients with prior ALK inhibitor, Cohort A1, Dose Level 1
  Course when BOR obtained: 2
[1]; patients with prior ALK inhibitor, Cohort A1, Dose Level 1
  Course when BOR obtained: 2
[1]; patients with prior ALK inhibitor, Cohort A1, Dose Level 2
  Course when BOR obtained: 2
[1]; patients with prior ALK inhibitor, Cohort A1, Dose Level 3
  Course when BOR obtained: 2
[1]; patients with prior ALK inhibitor, Cohort A1, Dose Level 4
  Course when BOR obtained: 2
[1]; patients with prior ALK inhibitor, Cohort A1, Dose Level 5
  Course when BOR obtained: 2
[1]; patients with prior ALK inhibitor, Cohort A2, Dose Level 3A
  Course when BOR obtained: 2
[1]; patients with prior ALK inhibitor, Cohort B2, Dose Level 4B
  Course when BOR obtained: 2
[1]; patients with prior ALK inhibitor, Cohort B2, Dose Level 5B
  Course when BOR obtained: 2 and 1
[1]; prior ALK inhibitor, Cohort A1, Dose Level 2
  Course when BOR obtained: 2
[1]; prior ALK inhibitor, Cohort A1, Dose Level 3
  Course when BOR obtained: 2
[1]; prior ALK inhibitor, Cohort A1, Dose Level 4
  Course when BOR obtained: 2
[1]; prior ALK inhibitor, Cohort A1, Dose Level 5
  Course when BOR obtained: 2
[1]; prior ALK inhibitor, Cohort B2, Dose Level 4
  Course when BOR obtained: 2
[1]; prior ALK inhibitor, Cohort B2, Dose Level 5
  Course when BOR obtained: 2 and 1
[2]; cohort A1
  Vital status: Alive; also recorded: Deceased
  PFS status: No event; also recorded: Relapsed/Deceased
  PFS time, years since on study: 3.67 years and 0.13 years and 2.37 years and 0.10 years and 1.50 years and 0.08 years and 3.43 years and 0.31 years and 0.0657 years and 1.07 years and 1.17 years and 0.15 years and 0.30 years and 4.15 years and 0.28 years and 0.11 years and 0.16 years
  OS time, years since on study: 3.67 years and 0.74 years and 3.43 years and 0.10 years and 1.50 years and 0.40 years and 0.36 years and 0.32 years and 0.39 years and 0.16 years and 2.28 years and 1.68 years and 0.20 years and 1.46 years and 1.11 years and 0.48 years and 0.56 years and 0.37 years and 4.15 years and 0.65 years and 0.63 years
[2]; cohort A2
  Vital status: Alive; also recorded: Deceased
  PFS status: No event; also recorded: Relapsed/Deceased
  PFS time, years since on study: 4.39 years and 0.15 years and 0.82 years and 1.03 years and 0.80 years and 2.07 years and 0.89 years and 0.77 years and 0.32 years and 2.48 years and 2.24 years and 1.46 years and 1.34 years and 0.93 years and 0.73 years
  OS time, years since on study: 4.39 years and 0.51 years and 1.86 years and 1.14 years and 1.78 years and 3.47 years and 0.89 years and 1.27 years and 1.10 years and 2.48 years and 2.24 years and 1.46 years and 1.34 years and 0.93 years and 0.73 years
[2]; cohort B2
  Vital status: Deceased; also recorded: Alive
  PFS status: Relapsed/Deceased; also recorded: No event
  PFS time, years since on study: 0.50 years and 0.66 years and 0.13 years and 0.45 years and 1.28 years and 0.06 years and 0.44 years and 0.70 years and 0.16 years
  OS time, years since on study: 1.16 years and 0.66 years and 0.41 years and 0.79 years and 1.28 years and 0.22 years and 0.44 years and 0.70 years and 0.54 years
